Biological target: Cytosol aminopeptidase (Homo sapiens, UniProt P28838)
Assay: Inhibitory activity against leucine aminopeptidase

Cytosol aminopeptidase, sequence (P28838 whole entry): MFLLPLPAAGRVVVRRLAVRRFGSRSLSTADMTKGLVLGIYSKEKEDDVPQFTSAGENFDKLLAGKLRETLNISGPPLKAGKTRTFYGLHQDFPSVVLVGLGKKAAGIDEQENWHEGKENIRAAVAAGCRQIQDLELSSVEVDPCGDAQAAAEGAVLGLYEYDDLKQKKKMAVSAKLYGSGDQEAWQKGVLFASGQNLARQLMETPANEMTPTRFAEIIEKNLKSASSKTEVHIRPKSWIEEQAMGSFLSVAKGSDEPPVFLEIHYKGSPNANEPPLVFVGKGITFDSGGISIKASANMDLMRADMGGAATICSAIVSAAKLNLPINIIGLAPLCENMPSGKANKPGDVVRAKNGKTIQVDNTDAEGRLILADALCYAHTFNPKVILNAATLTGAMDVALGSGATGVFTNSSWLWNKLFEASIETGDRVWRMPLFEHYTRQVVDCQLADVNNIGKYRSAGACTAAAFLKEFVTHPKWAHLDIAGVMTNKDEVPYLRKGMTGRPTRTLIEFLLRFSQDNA

COC(=O)/C=C\C(=O)[C@@H](N)CC(C)C
Ki: 76 nM

Source: ChEMBL document CHEMBL1133220, “Potent new leucine aminopeptidase inhibitor of novel structure synthesised by a modified Wadsworth-Emmons (Horner) Wittig procedure” (Bioorg Med Chem Lett, 2000)
